Earlier results in paper PMC4474859 (PLoS ONE, 2015).

What was measured:
Impα/Impβ complex = settings: full length protein vs NLS peptide
Description: (§1) Affinity assays between NLS peptides and Impα proteins have been performed based in indirect affinity measurements, using Surface Plasmon Resonance (SPR), and ITC [19, 38, 55]. Indirect affinity measurements between NLSs and Impα proteins reported dissociation constants in the nM range and permitted the comparison among these molecules. SPR experiments was only able to estimate the peptide-protein affinity in the μM range which was lately confirmed by ITC experiments.

MmImpα = settings: in words
Description: as §1

binding site on MmImpα (MmImpα) | Substance | increase in affinity compared to just nucleoplasmin NLS peptide (Impα/Impβ complex) [fold]
 | full length nucleoplasmin protein: full length nucleoplasmin protein binds to Impα/Impβ complex | 2
binds only the minor site of MmImpα | GSIIRKWN [hPLSCR4 NLS peptide] | 
